The source of these data is ChEMBL document CHEMBL1132563, “Three-dimensional quantitative structure-activity relationship of interleukin 1-beta converting enzyme inhibitors: A comparative molecular field analysis study” (J Med Chem, 1999).

The target of the assay is T1, Caspase-1 (Homo sapiens) (UniProt P29466).
T1 sequence (whole entry): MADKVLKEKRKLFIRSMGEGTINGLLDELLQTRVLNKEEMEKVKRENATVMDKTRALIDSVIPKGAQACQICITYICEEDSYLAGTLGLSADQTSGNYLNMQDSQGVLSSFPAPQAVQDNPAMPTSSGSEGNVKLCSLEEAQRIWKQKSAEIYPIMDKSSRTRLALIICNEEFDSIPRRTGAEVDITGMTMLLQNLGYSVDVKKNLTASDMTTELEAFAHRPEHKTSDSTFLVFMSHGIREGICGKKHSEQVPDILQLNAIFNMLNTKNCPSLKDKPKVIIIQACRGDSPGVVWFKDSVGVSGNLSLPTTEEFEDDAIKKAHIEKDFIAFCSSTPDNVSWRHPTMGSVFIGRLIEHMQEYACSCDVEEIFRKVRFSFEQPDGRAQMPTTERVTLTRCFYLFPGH
Kind of assay: Inhibitory activity against human IL-1 beta converting enzyme from monocytic THP-1 cell line, activity expressed as the logarithm of the second order rate constant for inactivation. Type of assay: cell-based.
In turn, `O=C(O)C[C@H](NC(=O)OCc1ccccc1)C(=O)COc1cc(C(F)(F)F)nn1-c1ccccc1` showed an Activity of 4.04. For the compound `O=C(O)CC(NC(=O)Cn1c(-c2cccnc2)ncc(NC(=O)OCc2ccccc2)c1=O)C(=O)COc1cc(C(F)(F)F)nn1-c1ccccc1` (centres undefined), the Activity is 5.16.

Compound `CC(C)[C@H](NC(=O)OCc1ccccc1)C(=O)N[C@@H](C)C(=O)N[C@@H](CC(=O)O)C(=O)COP(=O)(Oc1ccccc1)Oc1ccccc1` showed an Activity of 5.07. The compound `Cc1ncc(NC(=O)OCc2ccccc2)c(=O)n1CC(=O)NC(CC(=O)O)C(=O)COc1cc(C(F)(F)F)nn1-c1ccccc1` (centres undefined) displayed an Activity of 4.98. Turning to `C=CCOC(=O)N[C@@H](CC(=O)O)C(=O)COC(=O)c1c(F)c(F)c(F)c(F)c1F`, the Activity came out at 2.99. As to `O=C(O)CC(NC(=O)Cn1c(-c2ccc(F)cc2)ncc(NC(=O)NCc2ccccc2)c1=O)C(=O)COC(=O)c1c(Cl)cccc1Cl` (centres undefined), the Activity worked out at 5.17. As to `Cc1cccc(C)c1C(=O)OCC(=O)[C@H](CC(=O)O)NC(=O)[C@H](C)NC(=O)[C@@H](NC(=O)CCc1ccccc1)C(C)C`, the Activity was found to be 6.08.

For the compound `C[C@H](NC(=O)[C@H](Cc1ccccc1)NC(=O)OCc1ccccc1)C(=O)COC(=O)c1c(Cl)cccc1Cl`, the Activity was 2.7. Compound `CC(C)[C@H](NC(=O)[C@@H]1CCCN1C(=O)OCc1ccccc1)C(=O)N[C@@H](CC(=O)O)C(=O)COc1cc(C(F)(F)F)nn1-c1ccccc1` returned an Activity of 2.48. Then `C[C@H](NC(=O)[C@H](Cc1ccccc1)NC(=O)OCc1ccccc1)C(=O)COP(=O)(Oc1ccccc1)Oc1ccccc1`, with 2.7. As to `CC(C)C[C@H](NC(=O)OCc1ccccc1)C(=O)N[C@@H](Cc1ccccc1)C(=O)COP(=O)(Oc1ccccc1)Oc1ccccc1`, the Activity came to 2.7. On to `O=C(O)C[C@H](NC(=O)OCc1ccccc1)C(=O)COP(=O)(Oc1ccccc1)Oc1ccccc1`, for which the Activity is 4.07. For `CN(C)CCCCCC(=O)Nc1cnc(-c2ccc(F)cc2)n(CC(=O)NC(CC(=O)O)C(=O)COC(=O)c2c(Cl)cccc2Cl)c1=O` (centres undefined), the Activity worked out at 4.95. The same measure for `O=C(O)CC(NC(=O)Cn1c(-c2cccs2)ncc(NC(=O)OCc2ccccc2)c1=O)C(=O)COC(=O)c1c(Cl)cccc1Cl` (centres undefined): 5.43; for `C=CCOC(=O)N[C@@H](CC(=O)O)C(=O)COC(=O)c1c(C)cccc1C`: 2.91.

`CC(=O)N[C@@H](Cc1ccc(O)cc1)C(=O)N[C@H](C(=O)N[C@@H](C)C(=O)N[C@@H](CC(=O)O)C(=O)COC(=O)c1c(C)cccc1C)C(C)C` had an Activity of 6.04. The compound `CC(C)[C@H](NC(=O)CCc1ccccc1)C(=O)N[C@@H](C)C(=O)N[C@@H](CC(=O)O)C(=O)COC(=O)c1c(F)c(F)c(F)c(F)c1F` returned an Activity of 6.04. `CC(C)[C@H](NC(=O)OCc1ccccc1)C(=O)N(C)[C@@H](C)C(=O)N[C@@H](CC(=O)O)C(=O)COc1cc(C(F)(F)F)nn1-c1ccccc1` registered an Activity of 5.37.

The compound `CC(C)[C@@H](C(=O)N[C@@H](C)C(=O)N[C@@H](CC(=O)O)C(=O)COc1cc(C(F)(F)F)nn1-c1ccccc1)N(C)C(=O)OCc1ccccc1` showed an Activity of 3.93. In the case of `CC(C)[C@H](NC(=O)OCc1ccccc1)C(=O)N[C@@H](C)C(=O)N(C)[C@@H](CC(=O)O)C(=O)COc1cc(C(F)(F)F)nn1-c1ccccc1`, the Activity turned out to be 2.48. The compound `CC(C)[C@H](NC(=O)OCc1ccccc1)C(=O)N[C@@H](C)C(=O)N[C@@H](CC(=O)O)C(=O)COc1cc(C(F)(F)F)nn1-c1ccccc1` yielded an Activity of 5.45. Compound `CC(C)[C@H](NC(=O)CCc1ccccc1)C(=O)N[C@@H](C)C(=O)N[C@@H](CC(=O)O)C(=O)COC(=O)c1ccccc1` registered an Activity of 5.45. The same measure for `C[C@H](NC(=O)[C@H](Cc1ccccc1)NC(=O)OCc1ccccc1)C(=O)COc1cc(C(F)(F)F)nn1-c1ccccc1`: 2.7; for `O=C(O)C[C@H](NC(=O)OCc1ccccc1)C(=O)COC(=O)c1c(Cl)cccc1Cl`: 3.85.

On to `O=C(O)CC(NC(=O)Cn1c(-c2ccc(F)cc2)ncc(NC(=O)c2ccco2)c1=O)C(=O)COC(=O)c1c(Cl)cccc1Cl` (centres undefined), for which the Activity was found to be 4.66. Take `CC(C)[C@H](NC(=O)OCc1ccccc1)C(=O)N[C@@H](CC(=O)O)C(=O)COP(=O)(Oc1ccccc1)Oc1ccccc1`: the Activity was determined as 4.7.

As for `CC(C)[C@H](NC(=O)CCc1ccccc1)C(=O)N[C@@H](C)C(=O)N[C@@H](CC(=O)O)C(=O)COC(=O)c1ccc([N+](=O)[O-])cc1`, the Activity was 6.11. On to `CC(C)[C@H](NC(=O)OCc1ccccc1)C(=O)N[C@@H](CC(=O)O)C(=O)COP(=O)(Oc1ccc(Cl)cc1)Oc1ccc(Cl)cc1`, for which the Activity was 4.89. `CC(C)[C@H](NC(=O)CCc1ccccc1)C(=O)N[C@@H](C)C(=O)N[C@@H](CC(=O)O)C(=O)COC(=O)c1c(O)cccc1O` yielded an Activity of 5.85. For `CC(C)[C@H](NC(=O)OCc1ccccc1)C(=O)N[C@@H](CC(=O)O)C(=O)COc1cc(C(F)(F)F)nn1-c1ccccc1`, the Activity came out at 4.3. The same measure for `CC(C)[C@H](NC(=O)OCc1ccccc1)C(=O)N1CCCCC1C(=O)N[C@H](CC(=O)O)C(=O)COc1cc(C(F)(F)F)nn1-c1ccccc1` (some centres undefined): 5.43. For the compound `CC(C)[C@H](NC(=O)OCc1ccccc1)C(=O)N[C@@H](C)C(=O)N[C@@H](CC(=O)O)C(=O)COC(=O)c1c(Cl)cccc1Cl`, the Activity came to 5.61. For `CC(C)[C@H](NC(=O)OCc1ccccc1)C(=O)N1CCC[C@H]1C(=O)N[C@@H](CC(=O)O)C(=O)COc1cc(C(F)(F)F)nn1-c1ccccc1`, the Activity turned out to be 5.06.

`Nc1cnc(-c2ccc(F)cc2)n(CC(=O)NC(CC(=O)O)C(=O)COC(=O)c2c(Cl)cccc2Cl)c1=O` (centres undefined) returned an Activity of 4.56.

For the compound `CC(C)[C@H](NC(=O)CCc1ccccc1)C(=O)N[C@@H](C)C(=O)N[C@@H](CC(=O)O)C(=O)COC(=O)c1c(C(F)(F)F)cccc1C(F)(F)F`, the Activity is 5.95. `CC(=O)N[C@@H](Cc1ccc(O)cc1)C(=O)N[C@H](C(=O)N[C@@H](C)C(=O)N[C@@H](CC(=O)O)C(=O)COC(=O)c1c(C(F)(F)F)cccc1C(F)(F)F)C(C)C` returned an Activity of 5.98. With `O=C(O)CC(NC(=O)Cn1c(-c2ccc(F)cc2)ncc(NC(=O)OCc2ccccc2)c1=O)C(=O)COC(=O)c1c(Cl)cccc1Cl` (centres undefined), the Activity is 5.43. Take `O=C(O)CC(NC(=O)Cn1c(-c2ccc(F)cc2)ncc(NC(=O)OCc2ccccc2)c1=O)C(=O)COc1cc(C(F)(F)F)nn1-c1ccccc1` (centres undefined): the Activity was 5.2. The same measure for `O=C(O)CC(NC(=O)Cn1c(-c2ccc(F)cc2)ncc(NC(=O)OCc2ccccc2)c1=O)C(=O)COP(=O)(Oc1ccccc1)Oc1ccccc1` (centres undefined): 5.16. In the case of `C=CCOC(=O)N[C@@H](CC(=O)O)C(=O)COC(=O)c1c(O)cccc1O`, the Activity came out at 3.43. `C=CCOC(=O)N[C@@H](CC(=O)O)C(=O)COC(=O)c1ccc([N+](=O)[O-])cc1` returned an Activity of 1.79. Consider `CC(C)[C@H](NC(=O)OCc1ccccc1)C(=O)N[C@@H](C)C(=O)N[C@@H](CC(=O)O)C(=O)COP(=O)(Oc1ccc(Cl)cc1)Oc1ccc(Cl)cc1`, for which the Activity came out at 5.36. Then `O=C(O)CC(NC(=O)Cn1c(-c2ccc(F)cc2)ncc(NS(=O)(=O)c2ccccc2)c1=O)C(=O)COC(=O)c1c(Cl)cccc1Cl` (centres undefined), with 4.95. In the case of `C=CCOC(=O)N[C@@H](CC(=O)O)C(=O)COC(=O)c1c(C(F)(F)F)cccc1C(F)(F)F`, the Activity was determined as 3.72.
